Assay results published in patent US10640507B2, “PBD antibacterial agents” (KING'S COLLEGE LONDON, priority 2015, dated 2020).
Converted amounts (≈) assume the structure as drawn.

What was measured:
EMRSA-16 = experiment: General MIC protocol, Gram positive panel; type: cell-based
Experimental: (§1) General Minimum Inhibitory Concentration (MIC) Protocol
(§2) 1. Grow up cultures of bacterial strains to be tested overnight.
(§3) 2. Dilute down overnight cultures to concentration of 1×10^6 bacteria/ml (OD0.01) in Tryptic soy broth (TSB).
(§4) 3. Add 100 μl of TSB media to column 2-column 12 in 96 well plate (keeping column 1 clear).
(§5) 4. Make up compound to a concentration of 64 μg/ml in water (or alternatively to twice the chosen maximum concentration to be tested).
(§6) 5. Add 100 μl of antibiotic solution to the 1st and 2nd columns.
(§7) 6. Using a multichannel pipette take 100 μl from the 2nd column wells and pipette into 3rd column wells and repeat down the 96 well plate (remembering to include controls i.e. uninfected media and media with no antibiotic).
(§8) 7. To each well (except uninfected control row H) add 100 μl of bacterially infected media at a concentration of 1×10^6/ml.
(§9) 8. This dilutes down the concentration of the antibiotic by half (top dose is therefore 32 μg/ml in column 1) and also gives you a starting bacterial concentration of 5×10^5/ml.
(§10) 9. Wrap plate with parafilm to prevent evaporation.
(§11) 10. Leave at desired temperature (37° C. unless specified elsewhere) for 20 hours.
(§12) 11. Next day check plates for growth and measure optical density (i.e. absorbance) at a wavelength of 600 nm (OD600).
(§13) An example of such a plate is shown in FIG. 1 where column A represents wells that receive the top dose 100 μl; column B represents wells that receive the top dose 100 μl+100 μl TSB; and column C represents wells that receive 100 μl TSB. Row H which is marked by a box labelled D represents a blank where the cells receive no bacteria.

[1] = system: E. faecalis VRE NCTC 12201; experiment: General MIC protocol, Gram positive panel; type: cell-based
Experimental: as §1, §2, §3, §4, §5, §6, §7, §8, §9, §10, §11, §12, §13

[2] = system: methicillin sensitive S. aureus ATTC 9144 (NCTC 6571); experiment: General MIC protocol, Gram positive panel; type: cell-based; settings: Staphylococcus aureus, MSSA / NCTC 6571; MSSA 9144
Experimental: as §1, §2, §3, §4, §5, §6, §7, §8, §9, §10, §11, §12, §13

[3] = system: E. faecium VRE NCTC 12204; experiment: General MIC protocol, Gram positive panel; type: cell-based
Experimental: as §1, §2, §3, §4, §5, §6, §7, §8, §9, §10, §11, §12, §13

EMRSA-15 = experiment: General MIC protocol, Gram positive panel; type: cell-based
Experimental: as §1, §2, §3, §4, §5, §6, §7, §8, §9, §10, §11, §12, §13

E. faecalis VSE NCTC 775 = experiment: General MIC protocol, Gram positive panel; type: cell-based; settings: Enterococcus faecalis, NCTC775; VSE 775
Experimental: as §1, §2, §3, §4, §5, §6, §7, §8, §9, §10, §11, §12, §13

[4] = system: HeLa (Cervical cancer cell line); experiment: MTT cytotoxicity assay; type: cell-based; settings: Homo sapiens, MTT, 24 h continuous exposure, read-out: IC50 HeLa (Cervical cancer cell line)
Experimental: (§14) Two immortalised human cell lines, HeLa and WI38 were used for cytotoxicity screening of the compounds. HeLa is a human cervical cancer cell line and WI38 is a normal healthy cell line. The cell lines were obtained from the American Type Culture Collection. The cell-lines were maintained in monolayer culture in 75 cm2 flasks (TPP, Switzerland) under a humidified 5% CO2 atmosphere at 37° C. The HeLa cell line was maintained in Dulbecco's Modified Eagles Media (DMEM; Invitrogen) supplemented with foetal bovine serum (10% v/v; Invitrogen), L-glutamine (2 mM; Invitrogen), non-essential amino acids (1×; Invitrogen) and Penicillin-Streptomycin (1% v/v, Invitrogen). For WI38, Eagle's Minimum Essential Medium, and Penicillin-Streptomycin (1% v/v, Invitrogen) and foetal bovine serum (10%, nvitrogen) was used. For passaging, cells were washed with phosphate buffered saline [PBS] (GIBCO 14040, Invitrogen, UK), incubated with trypsine (GIBCO 25300, Invitrogen, UK), and re-seeded into fresh medium. For seeding, cells were counted using a Neubauer haemocytometer (Assistant, Germany) by microscopy (Nikon, USA) on a non-adherent suspension of cells that were washed in PBS, trypsinised, centrifuged at 8° C. at 8000 rpm for 5 min and re-suspended in fresh medium.
(§15) The cells were grown in normal cell culture conditions at 37° C. under a 5% CO2 humidified atmosphere using appropriate medium. The cell count was adjusted to 10^5 cells/ml/ and 20,000 cells were added per well. The cells were incubated for 24 hours and 1 μl of the appropriate inhibitor concentrations were to the wells in triplicates. After 24 h of continuous exposure to each compound, the cytotoxicity was determined using the MIT (3-(4,5-Dimethylthiazol-2-yl)-2,5-diphenyltetrazolium bromide) (Lancaster Synthesis Ltd, UK) colorimetric assay. Absorbance was quantified by spectrophotometry at λ=570 nm (Envision Plate Reader, PerkinElmer, USA). IC50 values were calculated by a dose-response analysis using the Prism Graphpad Prism® software. The cytotoxicity results are shown below in Table 12.

WI38 (Healthy cell line) = experiment: MTT cytotoxicity assay; type: cell-based; settings: Homo sapiens, WI-38; MTT; 24 h continuous exposure; highest concentration tested 20 μM; read-out: IC50 WI38 (Healthy cell line)
Experimental: as §14, §15

K. pneumonia M6 = experiment: General MIC protocol, Gram negative; type: cell-based; settings: Klebsiella pneumoniae; KP-M6
Experimental: as §1, §2, §3, §4, §5, §6, §7, §8, §9, §10, §11, §12, §13

A. baumannii NCTC 17978 = experiment: General MIC protocol, Gram negative; type: cell-based; settings: Acinetobacter baumannii, NCTC17978
Experimental: as §1, §2, §3, §4, §5, §6, §7, §8, §9, §10, §11, §12, §13

A. baumannii AYE = experiment: General MIC protocol, Gram negative; type: cell-based; settings: Acinetobacter baumannii
Experimental: as §1, §2, §3, §4, §5, §6, §7, §8, §9, §10, §11, §12, §13

K. pneumonia NCTC 13368 = experiment: General MIC protocol, Gram negative; type: cell-based
Experimental: as §1, §2, §3, §4, §5, §6, §7, §8, §9, §10, §11, §12, §13

P. aeruginosa PA01 = experiment: General MIC protocol, Gram negative; type: cell-based; settings: Pseudomonas aeruginosa, PA01, PA01
Experimental: as §1, §2, §3, §4, §5, §6, §7, §8, §9, §10, §11, §12, §13

P. aeruginosa NCTC 13437 = experiment: General MIC protocol, Gram negative; type: cell-based; settings: Pseudomonas aeruginosa, NCTC13437
Experimental: as §1, §2, §3, §4, §5, §6, §7, §8, §9, §10, §11, §12, §13

[5] = system: resistant mutants of KP 13438; experiment: MIC following resistance development; type: cell-based, Klebsiella; settings: KP 13438; following resistance development
Experimental: as §1, §2, §3, §4, §5, §6, §7, §8, §9, §10, §11, §12, §13
(§16) The MIC of PP-A418 and colistin against the strains used in the time kill analysis of Example 31 following resistance development were measured. The MIC was measured using the general MIC protocol given above. The results are given in Table 14 below where the MIC values of resistant mutants are shown in the brackets.

[6] = system: resistant mutants of KP 16; experiment: MIC following resistance development; type: cell-based, Klebsiella; settings: KP 16; following resistance development
Experimental: as §1, §2, §3, §4, §5, §6, §7, §8, §9, §10, §11, §12, §13, §16

[7] = system: resistant mutants of KP 13368; experiment: MIC following resistance development; type: cell-based, Klebsiella; settings: KP 13368; following resistance development
Experimental: as §1, §2, §3, §4, §5, §6, §7, §8, §9, §10, §11, §12, §13, §16

Klebsiella KP 342 = experiment: General MIC protocol, Gram negative; type: cell-based; settings: Klebsiella, KP342
Experimental: as §1, §2, §3, §4, §5, §6, §7, §8, §9, §10, §11, §12, §13
The minimum inhibitory concentration (MIC) was measured using the general MIC protocol given above.

K. pneumonia KP16 = experiment: General MIC protocol, Gram negative; type: cell-based; settings: K. pneumonia KP16
Experimental: as §1, §2, §3, §4, §5, §6, §7, §8, §9, §10, §11, §12, §13

K. pneumonia NCTC 51851 = experiment: General MIC protocol, Gram negative; type: cell-based; settings: K. pneumonia NCTC 51851
Experimental: as §1, §2, §3, §4, §5, §6, §7, §8, §9, §10, §11, §12, §13

K. pneumonia NCTC 13439 = experiment: General MIC protocol, Gram negative; type: cell-based; settings: K. pneumonia NCTC 13439
Experimental: as §1, §2, §3, §4, §5, §6, §7, §8, §9, §10, §11, §12, §13

K. pneumonia NCTC 13443 = experiment: General MIC protocol, Gram negative; type: cell-based; settings: K. pneumonia NCTC 13443
Experimental: as §1, §2, §3, §4, §5, §6, §7, §8, §9, §10, §11, §12, §13

K. pneumonia MGH 78578 = experiment: General MIC protocol, Gram negative; type: cell-based; settings: K. pneumonia MGH 78578
Experimental: as §1, §2, §3, §4, §5, §6, §7, §8, §9, §10, §11, §12, §13

K. pneumonia NCTC 13438 = experiment: General MIC protocol, Gram negative; type: cell-based; settings: K. pneumonia NCTC 13438
Experimental: as §1, §2, §3, §4, §5, §6, §7, §8, §9, §10, §11, §12, §13

[8] = Klebsiella pneumoniae, NCTC13368

Compound	MIC (EMRSA-16) [µg/mL]	MIC [1] [µg/mL]	MIC [2] [µg/mL]	MIC [3] [µg/mL]	MIC (EMRSA-15) [µg/mL]	MIC (E. faecalis VSE NCTC 775) [µg/mL]	IC50 [4] [µM]	IC50 (WI38 (Healthy cell line)) [µM]	MIC (K. pneumonia M6) [µg/mL]	MIC (A. baumannii NCTC 17978) [µg/mL]	MIC (A. baumannii AYE) [µg/mL]	MIC (K. pneumonia NCTC 13368; [8]) [µg/mL]	MIC (P. aeruginosa PA01) [µg/mL]	MIC (P. aeruginosa NCTC 13437) [µg/mL]	further results
CCN(CC)C(=O)c1cc2cc(NC(=O)c3cc(NC(=O)CCCOc4cc5c(cc4OC)C(=O)N4CCC[C@H]4C=N5)cn3C)ccc2o1 [PP-B27, (S)—N-(2-(diethylcarbamoyl)benzofuran-5-yl)-4-(4-((7-methoxy-5-oxo-2,3,5,11a-tetrahydro-1H-benzo[e]pyrrolo[1,2-a][1,4]-diazepin-8-yl)oxy)butanamido)-1-methyl-1H-pyrrole-2-carboxamide]	0.5 (≈ 0.748 µM)	< 0.125	< 0.125	< 0.125	0.25 (≈ 0.374 µM)	0.25 (≈ 0.374 µM)	> 20	> 20	8 (≈ 12 µM)	4 (≈ 5.98 µM)	4 (≈ 5.98 µM)	64 (≈ 95.7 µM)	128 (≈ 191 µM)	32 (≈ 47.9 µM)	–
CCN(CC)C(=O)c1cc2cc(NC(=O)c3cc(NC(=O)CCCOc4cc5c(cc4OC)C(=O)N4CCC[C@H]4C=N5)cn3C)ccc2s1 [PP-B28]	4 (≈ 5.84 µM)	0.5 (≈ 0.73 µM)	0.5 (≈ 0.73 µM)	1 (≈ 1.46 µM)	1 (≈ 1.46 µM)	1 (≈ 1.46 µM)	> 20	> 20	8 (≈ 11.7 µM)	4 (≈ 5.84 µM)	4 (≈ 5.84 µM)	64 (≈ 93.5 µM)	128 (≈ 187 µM)	32 (≈ 46.7 µM)	–
colistin [reference compound]	–	–	–	–	–	–	–	–	–	–	–	–	–	–	MIC of resistant mutants (in brackets) [5]: (64-128) μg/ml; MIC of resistant mutants (in brackets) [6]: (64-128) μg/ml; MIC of resistant mutants (in brackets) [7]: (32-64) μg/ml; MIC (Klebsiella KP 342): 4 µg/mL; MIC (K. pneumonia KP16): 2 to 4 µg/mL; MIC (K. pneumonia KP16; listed as Collistin): 1 µg/mL; MIC (K. pneumonia NCTC 51851): 64 µg/mL; MIC (K. pneumonia NCTC 13439): 4 µg/mL; MIC (K. pneumonia NCTC 13443): 2 µg/mL; MIC (K. pneumonia MGH 78578): 8 µg/mL; MIC (K. pneumonia NCTC 13368; KP NCTC 13368): 4 µg/mL; MIC (K. pneumonia NCTC 13438): 2 µg/mL
